From article PMC8344021, “Discovery of Small Molecule Bak Activator for Lung Cancer Therapy” (Theranostics, 2021)

Experiments:
human Bak protein (WT) = biological target: T1, human Bak protein (WT) (Homo sapiens, UniProt Q16611); experiment: Isothermal titration calorimetry (ITC); conditions: 25 °C, one-site binding
T1 construct: His6; made in house; host or cells: Escherichia coli BL21 DE3
Method: The binding affinity of BKA-073 with Bak protein was examined by isothermal titration calorimetry (ITC) assay as described, [28]. ITC assay was carried out in the auto-iTC200 instrument (MicroCal, GE) at 25 °C. Purified recombinant human or mouse Bak protein was loaded into a 96 Deepwell PP plate. BKA-073 compound was then titrated stepwise into the protein for a total of 16 injections. Reference power and initial delay were set as 5 µCal/sec and 60s, respectively. A string speed of 750 rpm was used for the ITC measurements. The binding constant (Kd) value was determined by fitting the titration curve to a one-site binding mode, using the Origin software provided by the manufacturer.
(§1) To confirm the binding of BKA-073 with Bak, we first conducted a competitive fluorescence polarization (FP) assay using purified human Bak protein, fluorescent Bak BH3 domain peptide, and BKA-073 as described, [37]-[40]. […] There are multiple amino acid differences in the BH3 domains between Bak and other Bcl2 family members, which helps to explain why BKA-073 only binds to Bak but not to other Bcl2 family members (i.e. Bax, Bcl2, Bcl-XL, Bcl-w and Mcl-1). In addition to the FP assay, isothermal titration calorimetry (ITC) was also employed to measure Bak/BKA-073 binding. […] In addition to human Bak/BKA-073 binding, we measured mouse Bak/BKA-073 binding using ITC.

A549 xenografts = experiment: A549 lung cancer xenografts, tumor growth; format: in vivo, Nu/Nu nude mice
Method: Six-week-old female Nu/Nu nude mice were purchased from Envigo (Indianapolis, IN) and housed under pathogen-free conditions in microisolator cages. The animal propagation protocol was approved by the Emory Institutional Animal Care and Use Committee (IACUC) and the Emory Animal Ethics Committee. 3×10^6 lung cancer cells were injected into subcutaneous tissue in the flank region of nude mice. The tumors were allowed to grow to an average volume of 150~200 mm^3 prior to initiation of therapy as previously described, [29]. Patient-derived xenografts (PDXs, TKO-002 and TKO-005) were established as part of an IRB-approved phase II co-clinical trial of arsenic trioxide in patients with relapsed SCLC who had failed standard platinum-based chemotherapy. Tumor samples were obtained by image-guided biopsy and were directly implanted into Nu/Nu nude mice without intervening propagation in plastic culture plates. Direct serial propagation of growing tumor occurred for up to 5 generations. The animal propagation protocol was approved by the Emory IACUC and the Emory Animal Ethics Committee. Mice with SCLC and NSCLC xenografts or PDXs were treated with BKA-073 intraperitoneally (i.p.) or venetoclax orally as indicated. During treatment, tumor volume (V) was measured by caliper measurements once every two days as described previously. Mice were euthanized by CO2 inhalation at the end of treatment. Harvested tumor tissues were used for further analysis.
To assess whether BKA-073 induced suppression of tumor growth occurs through activation of Bak and apoptosis in vivo, representative samples from harvested tumor tissues were analyzed by cross-linking with BMH for Bak oligomerization or by immunohistochemistry (IHC) for active caspase 3 as described, [29], [47]. […] There were no decreases in white cells (WBC), red blood cells (RBC) and platelets (PLT) in blood.

human Bak protein = biological target: T2, human Bak protein (Homo sapiens, UniProt Q16611); experiment: Competitive fluorescence polarization (FP) assay with fluorescent Bak BH3 peptide; format: binding; conditions: purified human Bak protein, fluorescent Bak BH3 domain peptide; mean ± SD, n = 3
T2 construct: purchased Creative Biomart BAK1-26166TH
Description: as §1
(1 x 10^5 cells) was transferred to a 5 ml culture tube, followed by the addition of 5 μl of FITC Annexin V and 5 μl propidium iodide (PI). […] Samples were analyzed by flow cytometry (BD FACSCantoTMII, BD Biosciences, San Jose, CA). ∆% cell death was calculated with the formula: (% cell death treated - % cell death non-treated) as described […]
Fluorescence polarization (FP) assay
Fluorescence polarization assay was carried out as described previously. […] The FP values (in millipolarization units) were measured using a fluorescence microplate reader at 485/530 nm (Gemini XPS, Molecular Devices). Data analysis and inhibit ory constant (Ki) value was determined by GraphPad prism software as described. […]

T2 sequence (Q16611 whole entry, the tested form may be a part): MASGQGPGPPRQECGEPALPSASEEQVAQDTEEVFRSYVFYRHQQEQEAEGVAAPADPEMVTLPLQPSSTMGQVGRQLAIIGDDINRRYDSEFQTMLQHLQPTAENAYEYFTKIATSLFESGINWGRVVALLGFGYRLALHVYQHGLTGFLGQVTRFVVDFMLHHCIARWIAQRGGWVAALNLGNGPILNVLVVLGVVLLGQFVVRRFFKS
T1 sequence (Q16611 1-186 limits assumed): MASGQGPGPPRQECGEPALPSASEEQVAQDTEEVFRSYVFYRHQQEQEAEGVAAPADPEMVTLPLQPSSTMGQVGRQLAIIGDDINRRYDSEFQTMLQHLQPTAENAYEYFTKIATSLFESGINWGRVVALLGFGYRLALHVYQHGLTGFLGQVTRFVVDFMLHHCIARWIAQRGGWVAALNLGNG

COc1ccc2nc3ccccc3c(NCCNCC(C)O)c2c1 (stereo not shown) [BKA-073]
Kd (human Bak protein (WT)): 88.6 ± 5.73 nM
apoptosis (active caspase 3, IHC) in tumor tissues (A549 xenografts; 5, 10, 15mg/kg/d i.p., 28 days): Dose-dependent
tumor growth (A549 xenografts; 5, 10, 15mg/kg/d i.p., 28 days): potently suppressed lung cancer growth in a dose-dependent fashion
Bak oligomerization in tumor tissues (A549 xenografts; 5, 10, 15mg/kg/d i.p., 28 days, BMH cross-linking): Dose-dependent
tumor growth (A549 xenografts; A549-P xenografts, 15 mg/kg/d, 4 weeks): repressed xenografts
tumor growth (A549 xenografts; parental A549 xenografts, 12.5mg/kg/d i.p., 28 days): potently inhibited growth
Ki (human Bak protein): 72.3 ± 5.96 nM
